Data published in publication PMC10571957, “αV-Integrin-Dependent Inhibition of Glioblastoma Cell Migration, Invasion and Vasculogenic Mimicry by the uPAcyclin Decapeptide” (Cancers, 2023).
“And” between values parts separate entries of the source, which are not always exact repeats. Equal entries are not always repeated.

Experiments:
[1] = test system: U138-MG cells; assay: Boyden chamber migration (chemotaxis), U138-MG; format: cell-based, human; settings: for migration, % of basal, average 2 expts: mean of 2 expts; for migration, % of basal, average expt 1: mean of expt 1; for migration, % of basal, average expt 2: mean of expt 2; for migration, % of basal, T-test list: single replicates of both expts
Protocol: The migration and invasion assays were performed using Boyden chambers and 8 µm pore size PVP-free filters coated with 50 µg/mL of collagen type VI (Sigma), as previously described. For the invasion assays, collagen-coated filters were further coated with 50 µg/mL Matrigel^TM (Sigma). Briefly, 11 × 10^4 U87-MG, 4 × 10^4 U251-MG, or 4 × 10^4 U138-MG/sample were pre-treated for 40 min at 37 °C with the indicated effectors. Then, the cells were allowed to migrate for 3 h or to invade for 5 h at 37 °C toward 5% FBS in DMEM/0.1% BSA. At the end of both assays, the cells on the lower filter surface were fixed, stained with haematoxylin, and counted under an optical microscope (Zeiss Axiophot, Carl Zeiss, Milan, Italy) at 20× magnification. The migration and invasion experiments were conducted in triplicate for U87-MG and in duplicate for U251-MG and U138-MG. The migrated or invaded cells were reported as percentage of basal migration or invasion in the presence of DMEM/0.1% BSA, taken as 100%, and analyzed as reported in Section 2.11.
Figure 3 Inhibition of U87-MG, U251-MG, and U138-MG GBM cellular migration by uPAcyclin. Quantitative analysis of U87-MG (A), U251-MG (B), and U138-MG (C) directional migration. A total of 11 × 10^4 U87-MG/sample or 4 × 10^4 U251-MG or U138-MG/sample were pre-treated for 40 min at 37 °C with uPAcyclin or S-peptide at the indicated concentrations, anti-αV polyclonal (anti-αV Pclonal) or monoclonal (anti-αV MoAb) antibody, or anti-GAPDH, and anti-α2 monoclonal antibody (anti-α2 MoAb), and then assayed in Boyden chambers at 37 °C, either for basal (BSA) or directional 5% FBS-dependent migration for 3 h at 37 °C. At the end of incubation, the filters were processed as described in Methods. Basal migration was taken as 100% and all values were calculated relative to that (* p-value < 0.05; ** p-value < 0.005; *** p-value < 0.001).

[2] = test system: U138-MG cells; assay: Cell viability/proliferation (Trypan blue), U138-MG; format: cell-based, human; settings: 1 nM or 100 nM, 72–96 h
Protocol: Cell viability was tested in DMEM/10% FBS, in the presence of 1 nM or 100 nM uPAcyclin, either by Trypan blue exclusion or by thiazolyl blue tetrazolium bromide (MTT) assays, as specified in the figure legends. For the Trypan blue assay, 4 × 10^4 U87-MG, U251-MG, U138-MG, and C6 cells/sample were grown in 12-well plates, and followed for 24, 48 and 72 h. As a negative control, the cells were grown in a serum-free medium. Then, the cells were detached, stained with a 0.2% (w/v) Trypan blue solution, counted using a Burker chamber (T0 = 100%), and reported as number of viable cells/total.

[3] = test system: U138-MG cells (αV integrin); assay: FITC-uPAcyclin receptor binding/competition, U138-MG; parameters: species or system human; settings: unlabeled uPAcyclin vs FITC-uPAcyclin, 4 °C
Protocol: The U87-MG, U251-MG, and U138-MG cell lines were harvested and acid-treated, as described. Then, 2 × 10^6 cells/sample were exposed for 30 min at 4 °C to uPAcyclin or S-uPAcyclin at the indicated concentrations, or with the following antibodies: VNR147 monoclonal anti-αV integrin (Chemicon Int. Inc., Temecula, CA, USA), polyclonal anti-αV (Millipore, Burlington, MA, USA), monoclonal anti-α2 (Chemicon Int. Inc., Temecula, CA, USA), polyclonal anti-actin (Sigma-Aldrich, St. Louis, MO, USA), monoclonal anti-GAPDH (Abcam, Cambridge, UK), and purified vitronectin (VN, Corning, Glendale, AZ, USA). The cells were subsequently incubated with 50 nM FITC-uPAcyclin for 2 h at 4 °C, as described. At the end of incubation, the cells were washed and the cell surface-associated fluorescence was determined using a fluorimeter (VICTOR^TM X3-PerkinElmer, Waltham, MA, USA). All binding assays were performed three times, with duplicate samples, and analyzed as described in Section 2.11.
Figure 2 αV expression of U87-MG, U251-MG, and U138-MG GBM cells and specific binding of FITC-uPAcyclin. […] At the end of the incubation, the unbound material was washed and cell-associated FITC-uPAcyclin was quantitated by a fluorimeter. The net value of cell-surface-associated fluorescence, corresponding to the specific binding, is shown. […]

[4] = 1 nM, 5% FBS, 3 h, expt 1, duplicates
[5] = 1 nM, 5% FBS, 3 h, expt 2, duplicates
[6] = 100 nM, 5% FBS, 3 h, expt 1, duplicates
[7] = 100 nM, 5% FBS, 3 h, expt 2, duplicates

## Ac-K^1P[ESPPEELK^10]-NH2 (sidechain bridge or staple) [uPAcyclin]
[1]; 1 nM, U138-MG, 5% FBS, 3 h
  inhibition of migration: 70–80%
[1]; [4]
  migrated cells n°/field: 8 cells n°/field and 7 cells n°/field
  migration, % of basal: 114% and 100%
[1]; [5]
  migrated cells n°/field: 8 cells n°/field and 10 cells n°/field
  migration, % of basal: 100% and 125%
[1]; 1 nM, 5% FBS, 3 h
  migration, % of basal, average 2 expts: 110%
  migration, % of basal, average expt 1: 107%
  migration, % of basal, average expt 2: 113%
[1]; 1 nM
  migration, % of basal, T-test list: 114 and 100 and 125
[1]; 100 nM, U138-MG, 5% FBS, 3 h
  migration, in words: below background levels
[1]; [6]
  migrated cells n°/field: 7 cells n°/field and 5 cells n°/field
  migration, % of basal: 100% and 71%
[1]; [7]
  migrated cells n°/field: 6 cells n°/field and 7 cells n°/field
  migration, % of basal: 75% and 88%
[1]; 100 nM, 5% FBS, 3 h
  migration, % of basal, average 2 expts: 84%
  migration, % of basal, average expt 1: 86%
  migration, % of basal, average expt 2: 82%
[1]; 100 nM
  migration, % of basal, T-test list: 100 and 71 and 75 and 88
[2]
  proliferation/viability: unaffected by uPAcyclin, regardless of the concentration employed
[3]
  Kdapp: low nanomolar range
